The record followed here is article PMC12652692, “Synthesis and In Vitro Anticancer Evaluation of Novel Phosphonium Derivatives of Chrysin” (International Journal of Molecular Sciences, 2025).

What all share (test): NCI60 one-dose screen
What all share (assay type): cell-based

One test has as its system SN12C. As to conditions: Homo sapiens, read-out: Growth percent. In a few lines:
(§1)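 Readings at 515 nm of bound sulforhodamine B gave percent growth versus a no-drug control and the time-zero population, where −100 means all cells dead. Cells had been exposed to a 10 µM single dose for 48 h.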

The next test deals with HCC-2998. As to conditions: Homo sapiens; HCC-2998, 10 μM; read-out: Growth percent. A digest of the protocol:
as §1

A further test deals with SK-MEL-28. As to conditions: Homo sapiens; SK-MEL-28, 10 μM; read-out: Growth percent. A digest of the protocol: as §1
The next test relates to HL-60(TB). As to conditions: Homo sapiens, read-out: Growth percent. In a few lines:
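Single 10 μM dose across NCI60 lines in RPMI 1640 with 5% FBS; 48 h exposure at 37° C after 24 h preincubation, SRB protein stain read at 515 nm. Value is growth relative to no-drug control and time-zero cell count: 0–100 inhibition, below 0 lethality.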

The next test deals with A549/ATCC. As to conditions: Homo sapiens, read-out: Growth percent. In a few lines: as §1
The next test deals with SF-268. As to conditions: Homo sapiens; SF-268, 10 μM; read-out: Growth percent. In a few lines: as §1
In the next test the test system is TK-10. As to conditions: Homo sapiens; TK-10, 10 μM; read-out: Growth percent. A digest of the protocol: as §1
In a further test the test system is CAKI-1. As to conditions: Homo sapiens; CAKI-1, 10 μM; read-out: Growth percent. In a few lines: as §1
In the next test the test system is LOX IMVI. As to conditions: Homo sapiens, read-out: Growth percent. In a few lines: as §1
Another test deals with HCT-116. As to conditions: Homo sapiens; HCT-116, 10 μM; read-out: Growth percent. In a few lines:
as §1

The next test deals with UO-31. As to conditions: Homo sapiens; UO-31, 10 μM; read-out: Growth percent. In a few lines:
as §1

Another test concerns MOLT-4. As to conditions: Homo sapiens; MOLT-4, 10 μM; read-out: Growth percent. A digest of the protocol:
as §1

The subject of the next test is BT-549. As to conditions: Homo sapiens; BT-549, 10 μM; read-out: Growth percent. A digest of the protocol: as §1
For the next test, the system named is NCI-H322M. As to conditions: Homo sapiens, read-out: Growth percent. In a few lines: as §1

Each structure is given as a SMILES string.

With `COc1ccc([P+](CCCCOc2cc(O)c3c(=O)cc(-c4ccccc4)oc3c2)(c2ccc(OC)cc2)c2ccc(OC)cc2)cc1` [3c], the activity at 10 µM with SN12C is -59%; in the test with HCC-2998, -72.9%; in the test on SK-MEL-28, -44.5%; with HL-60(TB), -31.2%; with A549/ATCC, -91.2%; in the test on SF-268, -38.3%. Further, the activity at 10 µM was -87.1% with TK-10; -75.5% in the test on CAKI-1; -78.8% with LOX IMVI; -95.5% in the test with HCT-116; -89.9% in the test with UO-31; -51.6% with MOLT-4. Besides, the activity at 10 µM with BT-549 is -82.6%; with NCI-H322M it was -45.1%.
Consider `Cc1ccccc1[P+](CCCCOc1cc(O)c2c(=O)cc(-c3ccccc3)oc2c1)(c1ccccc1C)c1ccccc1C` [3g], for which the activity at 10 µM in the test on SN12C is -97%; in the test with HCC-2998, -98.2%; in the test on SK-MEL-28 it was -98.4%; in the test on HL-60(TB) it was -97.4%; in the test with A549/ATCC it was -94.1%; in the test on SF-268 it was -97.9%. In addition, the activity at 10 µM in the test on TK-10 is -99.3%; with CAKI-1, -97.2%; in the test with LOX IMVI, -97.5%; in the test with HCT-116 it was -94.5%; in the test with MOLT-4, -98.6%; in the test on BT-549, -98.1%. For the same compound, the activity at 10 µM in the test with NCI-H322M is -98.2%.
For `O=c1cc(-c2ccccc2)oc2cc(OCCCC[P+](c3ccccc3)(c3ccccc3)c3ccccc3)cc(O)c12` [3a], the activity at 10 µM was -49.5% in the test on SN12C; -93.1% with HCC-2998; -98.5% with SK-MEL-28; -51.5% with HL-60(TB); -56% in the test with A549/ATCC; -59% in the test with SF-268. Further, the activity at 10 µM in the test with TK-10 was -81.8%; with CAKI-1, -97.1%; in the test on LOX IMVI, -90.1%; with HCT-116 it was -58.1%; in the test on UO-31, -97.1%; in the test on MOLT-4 it was -41.7%. The activity at 10 µM in the test on BT-549 was -83%; in the test on NCI-H322M it was -100%.
Take `O=c1cc(-c2ccccc2)oc2cc(OCCCC[P+](C3CCCCC3)(C3CCCCC3)C3CCCCC3)cc(O)c12` [3e]: the activity at 10 µM was -57% in the test on SN12C; -84.7% in the test with HCC-2998; -41.4% in the test on SK-MEL-28; -20.6% with HL-60(TB); -95.3% with A549/ATCC; -67.5% with SF-268. Further, the activity at 10 µM in the test with TK-10 is -91.3%; with CAKI-1, -90.8%; with LOX IMVI it was -90.5%; in the test with HCT-116, -62%; with UO-31, -92.5%; with MOLT-4, -60.6%. Also, the activity at 10 µM in the test with BT-549 was -89.9%; in the test on NCI-H322M, -85.2%.
Regarding `COc1c(C)cc([P+](CCCCOc2cc(O)c3c(=O)cc(-c4ccccc4)oc3c2)(c2cc(C)c(OC)c(C)c2)c2cc(C)c(OC)c(C)c2)cc1C` [3f], the activity at 10 µM is -77.4% in the test on SN12C; -73.5% in the test on HCC-2998; -85.7% in the test with SK-MEL-28; -27.7% in the test on HL-60(TB); -66.1% with A549/ATCC; -66.5% with SF-268. The activity at 10 µM with TK-10 is -84.7%; with CAKI-1, -51.6%; in the test with LOX IMVI, -68.7%; in the test with HCT-116, -47.6%; with UO-31, -59.6%; with MOLT-4 it was -42.5%. Besides, the values for the activity at 10 µM in the test with BT-549 and in the test on NCI-H322M were -53.4% and -62.2%, respectively.
`O=c1cc(-c2ccccc2)oc2cc(OCCCC[P+](c3ccccc3)(c3ccccc3)c3ccccn3)cc(O)c12` [3h]: the activity at 10 µM in the test on SN12C is -91.4%; in the test on HCC-2998, -88.5%; with SK-MEL-28, -94.7%; in the test on HL-60(TB), 0.68%; in the test on A549/ATCC, -43.5%; with SF-268, -67.6%. Moreover, the activity at 10 µM in the test on TK-10 was -93.3%; in the test on CAKI-1, -71.2%; with LOX IMVI, -84.1%; in the test on HCT-116, -61.6%; with UO-31, -94%; in the test with MOLT-4, 21.1%. The activity at 10 µM in the test on BT-549 is -69.7%; in the test with NCI-H322M it was -94.5%.
Take `O=c1cc(-c2ccccc2)oc2cc(O)cc(O)c12` [compound 2, 5,7-dihydroxyflavone, reference compound]: the activity at 10 µM in the test on SN12C was 85.8%; with HCC-2998 it was 103%; in the test on SK-MEL-28, 102%; in the test with HL-60(TB), 116%; in the test on A549/ATCC, 98.5%; in the test on SF-268 it was 102%. The activity at 10 µM with TK-10 was found to be 107%; in the test with CAKI-1, 83.6%; with LOX IMVI, 85.1%; with HCT-116 it was 82.7%; with UO-31 it was 89.4%; with MOLT-4, 106%. Also, the activity at 10 µM is 91% in the test on BT-549 and 98.3% in the test with NCI-H322M.
In the case of `O=c1cc(-c2ccccc2)oc2cc(OCCCC[P+](c3ccc(F)cc3)(c3ccc(F)cc3)c3ccc(F)cc3)cc(O)c12` [3d], the activity at 10 µM with SN12C is -82.1%; in the test on HCC-2998, -89%; in the test with SK-MEL-28 it was -92%; in the test on HL-60(TB), -46.9%; in the test on A549/ATCC, -41.1%; with SF-268, -71.6%. Also, the activity at 10 µM in the test with TK-10 was -84.8%; with CAKI-1 it was -93.6%; in the test with LOX IMVI, -93.7%; with HCT-116 it was -66.6%; in the test with UO-31, -86.9%; with MOLT-4, -24.3%. Moreover, the activity at 10 µM in the test with BT-549 was -76%; in the test on NCI-H322M it was -88.3%.
On to `Cc1ccc([P+](CCCCOc2cc(O)c3c(=O)cc(-c4ccccc4)oc3c2)(c2ccc(C)cc2)c2ccc(C)cc2)cc1` [3b], for which the activity at 10 µM in the test on SN12C was -84.4%; in the test with HCC-2998 it was -88.7%; in the test with SK-MEL-28, -85.3%; in the test on HL-60(TB) it was -60.4%; in the test with A549/ATCC it was -49.5%; in the test on SF-268 it was -61.3%. Further, the activity at 10 µM in the test on TK-10 is -79.3%; with CAKI-1, -90.4%; in the test on LOX IMVI, -91.2%; with HCT-116, 1.29%; with UO-31, -82.5%; in the test with MOLT-4, -43.4%. The figures for the activity at 10 µM in the test with BT-549 and in the test with NCI-H322M were -19% and -79.5%, respectively.
